These are literature values, as cited in patent US20050158775A1, “Novel plamid DNA comprising reoprter gene DNA and use of the same” (priority 1997, published 2005).

This data set relates to PPAR γ. To be noted: at a concentration of 10 μM or less; cited from earlier work.

Each structure is given as a SMILES string.

Take `CCCCC[C@H](O)/C=C/[C@@H]1[C@H]2C/C(=C/CCCC(=O)O)C[C@H]2C[C@H]1O` [carbacyclin]: the “PPAR γ agonist activity” value was “does not show PPAR γ agonist activity”.
